Consider 3 compounds from patent publication US20100203132A1, “Pharmaceutical Compositions Comprising NEP-Inhibitors, Inhibitors of the Endogenous Endothelin Producing System and AT1 Receptor Antagonists” (Solvay Pharmaceuticals GmbH, priority 2004, published 2010).

Structures are written as SMILES. Counter-ions that a name gives are not always drawn.

Test [1] deals with spontaneously hypertensive rat. The experiment in a line: Telemetric monitoring of blood pressure and heart rate in spontaneously hypertensive rats, compounds given via the drinking water. Format: in vivo. The settings on record: SHR; for DBP, change vs. baseline / HR, change vs. baseline / SBP, change vs. baseline: mean, n=5. The text has this: Male spontaneously hypertensive rats (=SHR, insulin resistant strain from Charles River; aged 6 months) were equipped with telemetry transmitters for continuous monitoring of blood pressure and heart rate (as described below). After 3 days of monitoring under baseline (untreated) conditions, animals were divided into two groups receiving an AT1-receptor antagonist (eprosartan mesylate, hereinafter referred to as experiment I; or candesartan cilexetil, hereinafter referred to as experiment II) or an AT1-receptor antagonist plus daglutril in combination. In experiment II, a third group of rats was included, receiving only daglutril. Compounds were administered via the drinking water, and daily drug intake was measured by weighing the water bottles thrice weekly. Intended daily doses in experiment I were 60 mg/kg/day of eprosartan mesylate plus, in the combination group, 100 mg/kg/day of daglutril. In experiment II, intended daily doses were 1 mg/kg of candesartan cilexetil, and 100 mg/kg of daglutril in the daglutril only and the combination group. Telemetry transmitters for continuous monitoring of blood pressure, heart rate and locomotor activity (TA11PA-C40, Data Sciences, USA) were implanted intraabdominally under inhalative halothane anesthesia. A midline abdominal incision was made, and the abdominal aorta was visualized by removal of retroperitoneal fat and connective tissue. A ligature was placed caudal of the renal arteries, the aorta was punctured with a 22G needle, and the catheter was advanced into the aorta. The entry point was sealed with tissue adhesive (Vetbond®, 3M, USA), the ligature was removed, and the abdominal incision was closed. Measurements of aortic pressure were taken every 5 minutes (=min) for 4 seconds (=s) each at a sampling rate of 500 Hz, and were corrected for the corresponding ambient pressure (ambient pressure monitor, C11 PR, Data Sciences, USA).
Concentrations of AT1-receptor antagonists and daglutril in the drinking water were adjusted once per week, in order to ensure the intended daily intake. In experiment I, the average daily water intake throughout the 33 days treatment period amounted to 51 and 56 ml/kg in the eprosartan and eprosartan plus daglutril group, respectively, resulting in the uptake of 62 mg/kg/day of eprosartan in both groups, and 104 mg/kg/day of daglutril in the combination group. In experiment II, the average daily water intake during the 25 days treatment period was 64 ml/kg (candesartan only), 62 ml/kg (daglutril only) and 62 ml/kg (candesartan plus daglutril), resulting in daily doses of 0.9 mg/kg of candesartan in both, the candesartan and combination group, and 101 mg/kg and 98 mg/kg of daglutril in the daglutril and combination group, respectively.
The blood pressure, heart rate and activity values, sampled in 5 min intervals by the Dataquest system, were used for calculation of individual 24 hours (=h)-means. These 24 h means were exported to Excel, and group mean values of systolic blood pressure (=SBP), diastolic blood pressure (=DBP), heart rate (=HR), and locomotor activity (=ACT) were calculated for the different treatment groups. For the statistical analysis, a baseline value (pre) was calculated from 3 days prior to compound application, and effects of AT1-receptor antagonist, daglutril and their combination were calculated in relation to this baseline value (average value during the treatment period minus baseline value). The statistical comparison was done by using analysis of variance, followed by two-tailed Student's t-test for comparison of AT1 receptor antagonist and combination groups, both at an error level of P<0.05.

The test system of test [2] is human subjects with congestive heart failure. The test is described as follows: Single dose study of oral daglutril during 12-hour right heart catheterization, subgroup analysis by concomitant losartan potassium. Format: in vivo. The settings on record: human CHF subjects, single oral dose of daglutril (200, 400 or 800 mg groups pooled), with or without concomitant losartan potassium; value is mean change (SE). As for the experimental part:
A randomized, placebo-controlled, parallel group, multi-center, single dose study of oral daglutril (vide supra) during 12-hour right heart catheterization in human subjects with congestive heart failure (=CHF) was performed. Each subject received one dose of daglutril or placebo. The study consisted of three visits (or study days when in-subjects were included). Ambulatory subjects were in hospital for two nights and one day. […]
The primary efficacy parameter was the maximum decrease from baseline over 6 hours for SVR and was compared between treatment groups using analysis of covariance, with the baseline value as covariate and center and NYHA classification as factors. […] In addition, the existence of a dose-response relationship for daglutril was evaluated by investigating linear, quadratic and cubic contrasts. The secondary efficacy parameter was the maximum change from baseline for PCWP and was analyzed in the same way as the primary variable. The maximum decrease from baseline over 12 hours, the change from for each individual time point and the adjusted area under the curve (=AUC) over 6 and 12 hours were analyzed for SVR and PCWP, using similar statistical methodology as for the main parameter of interest. All other tertiary efficacy parameters were analyzed using the same statistical methodology as for the primary efficacy parameter. […]

Where [3] appears, read: experiment II, 25 days via drinking water, candesartan 0.9 mg/kg/day, daglutril 101 mg/kg (alone) or 98 mg/kg (combination).
Setting [4] is: experiment I, 33 days via drinking water, eprosartan 62 mg/kg/day, daglutril 104 mg/kg/day in combination.

For the compound `CCOc1nc2cccc(C(=O)OC(C)OC(=O)OC3CCCCC3)c2n1Cc1ccc(-c2ccccc2-c2nn[nH]n2)cc1` (centres unmarked) [Candesartan, candesartan cilexetil], in test [1] (setting [3]), the “DBP, change vs. baseline” value is given as −19.7 mmHg; the “HR, change vs. baseline” value was -3.0 min⁻¹; the “SBP, change vs. baseline” value is reported as −22.8 mmHg.
On to `CCCCc1ncc(/C=C(\Cc2cccs2)C(=O)O)n1Cc1ccc(C(=O)O)cc1` [Eprosartan, eprosartan mesylate], for which, in test [1] (setting [4]), the “DBP, change vs. baseline” value is on record as −5.6 mmHg; the “HR, change vs. baseline” value is -7.6 min⁻¹; the “SBP, change vs. baseline” value is on record as −5.9 mmHg.
As for `CCOC(=O)C(CCc1ccccc1)CC1(C(=O)NC2CCc3ccccc3N(CC(=O)O)C2=O)CCCC1` (centres unmarked) [daglutril, 2-[1-(1-carboxymethyl-2-oxo-2,3,4,5-tetrahydro-1H-benzo[b]azepin-3-ylcarbamoyl)-cyclopentylmethyl]-4-phenyl-butyric acid ethyl ester], the “reduction in blood pressure (in words)” value in test [1] (daglutril given alone) is given as “did not lead to a reduction in blood pressure”. For the same compound, in test [1] (setting [3]), the “DBP, change vs. baseline” value is 0.8 mmHg; the “HR, change vs. baseline” value is -2.0 min⁻¹; the “SBP, change vs. baseline” value was −1.5 mmHg. For the same compound, the “Placebo corrected mean change of MPAP (average 0.5-6 hrs)” value in test [2] is recorded as −3.35 (1.06) mmHg.
